According to patent publication US9834542B2, “LXR modulators” (BRISTOL-MYERS SQUIBB COMPANY, priority 2013, dated 2017):

Biological target: T1, LXRβ (Homo sapiens, UniProt P55055)
T1 construct: Co-transfection expression plasmids, comprising full-length LXRα (pCMX-h LXRα[…] or LXRβ (pCMX-hLXRβ)); expressed in transfected cells; host or cells: CV-1 African Green Monkey Kidney Cells
T1 sequence (P55055 1-460): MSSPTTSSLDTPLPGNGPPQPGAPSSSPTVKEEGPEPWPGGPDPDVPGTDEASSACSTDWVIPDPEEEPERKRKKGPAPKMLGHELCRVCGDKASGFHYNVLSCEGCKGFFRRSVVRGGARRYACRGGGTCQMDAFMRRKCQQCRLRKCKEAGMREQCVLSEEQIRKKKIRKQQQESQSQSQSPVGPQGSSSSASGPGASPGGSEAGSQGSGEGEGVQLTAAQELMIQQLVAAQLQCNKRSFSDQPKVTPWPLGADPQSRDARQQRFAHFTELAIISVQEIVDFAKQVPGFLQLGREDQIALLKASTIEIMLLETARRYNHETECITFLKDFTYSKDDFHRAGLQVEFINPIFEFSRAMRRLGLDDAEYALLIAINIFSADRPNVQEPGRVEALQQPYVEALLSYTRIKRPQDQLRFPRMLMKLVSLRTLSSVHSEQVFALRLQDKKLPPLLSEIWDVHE
T1 sequence (P19793 1-462 partner): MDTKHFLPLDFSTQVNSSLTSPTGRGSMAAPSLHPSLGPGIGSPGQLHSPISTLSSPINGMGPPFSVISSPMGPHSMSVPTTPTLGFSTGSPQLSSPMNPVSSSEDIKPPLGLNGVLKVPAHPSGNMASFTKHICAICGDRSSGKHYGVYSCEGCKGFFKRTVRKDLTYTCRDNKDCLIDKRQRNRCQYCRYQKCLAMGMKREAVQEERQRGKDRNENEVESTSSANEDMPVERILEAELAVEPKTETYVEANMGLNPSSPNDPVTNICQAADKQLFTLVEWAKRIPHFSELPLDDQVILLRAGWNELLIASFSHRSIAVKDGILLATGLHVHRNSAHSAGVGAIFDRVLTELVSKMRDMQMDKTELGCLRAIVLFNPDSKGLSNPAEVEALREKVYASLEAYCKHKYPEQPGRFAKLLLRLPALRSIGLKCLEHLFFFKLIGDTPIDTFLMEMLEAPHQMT
Assay: Co-transfection assay (LXRE luciferase reporter), LXRβ
Assay type: cell-based
Set-up: % Efficacy: concentration or dose not given beside the values
Details: for EC50: CV-1 cells transfected with pCMX-hLXRβ and LXREx1-Tk-Luciferase, 20 hours incubation; for Emax: read-out: % Efficacy
Procedure, shortened: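 Luciferase signal from an LXREx1-Tk reporter was measured after transfected CV-1 cells (full-length hLXRβ, endogenous RXR) were treated with compounds for 20 h at 37 °C, ≤0.5% DMSO. EC50 came from four-parameter fits of 11-point ½-log curves; % efficacy versus a reference agonist maximum.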

[1] = LXRβ co-transfection, relative to high control 1-(2,4-difluorobenzyl)-2-oxo-6-(4-phenoxyphenyl)-4-(trifluoromethyl)-1,2-dihydropyridine-3-carbonitrile

SMILES	EC50 [nM]	% Efficacy [1] [%]	Emax [1] [%]
Cc1nc(-c2cc(-c3cc(F)c(CO)c(S(C)(=O)=O)c3)ccc2-n2cc(C(C)O)nc2C)c(-c2ccc3c(c2)OC(F)(F)O3)o1 (single isomer, unassigned) [Example 516, 1-(1-(3-(5-(2,2-difluorobenzo[d][1,3]dioxol-5-yl)-2-methyloxazol-4-yl)-3′-fluoro-4′-(hydroxymethyl)-5′-(methylsulfonyl)-[1,1′-biphenyl]-4-yl)-2-methyl-1H-imidazol-4-yl)ethanol]	270	41	
Cc1cn(-c2ccc(-c3cccc(S(C)(=O)=O)c3)cc2-n2nncc2-c2ccc(OC(F)(F)F)cc2)c(C)n1 [Example 83, 1-[4-(2,4-dimethyl-1H-imidazol-1-yl)-3′-(methylsulfonyl)biphenyl-3-yl]-5-{4-[(trifluoromethyl)oxy]phenyl}-1H-1,2,3-triazole]	1160		69
CS(=O)(=O)c1cccc(-c2cc(F)c(-n3cnc(C(F)(F)F)c3)c(-n3nncc3-c3ccc(Cl)cc3)c2)c1 [Example 187, 5-(4-chlorophenyl)-1-{5-fluoro-3′-(methylsulfonyl)-4-[4-(trifluoromethyl)-1H-imidazol-1-yl]biphenyl-3-yl}-1H-1,2,3-triazole]	518		92
Cc1nc(C(F)(F)F)cn1-c1ccc(-c2cc(F)c(CO)c(S(C)(=O)=O)c2)cc1-c1ccnn1-c1ccc(Cl)nc1 [Example 297, (3′-(1-(6-chloropyridin-3-yl)-1H-pyrazol-5-yl)-3-fluoro-4′-(2-methyl-4-(trifluoromethyl)-1H-imidazol-1-yl)-5-(methylsulfonyl)biphenyl-4-yl)methanol]	351		75
Cc1nc(C(F)(F)F)cn1-c1ccc(-c2cccc(S(C)(=O)=O)c2)cc1-n1nncc1-c1ccc(C(F)(F)F)cc1 [Example 62, 1-{3′-(methylsulfonyl)-4-[2-methyl-4-(trifluoromethyl)-1H-imidazol-1-yl]biphenyl-3-yl}-5-[4-(trifluoromethyl)phenyl]-1H-1,2,3-triazole]	276		91
Cc1nc(C(F)(F)F)cn1-c1ccc(-c2cccc(S(C)(=O)=O)c2)cc1-c1nc(CCO)oc1-c1ccc(OC(F)(F)F)cc1 [Example 524, 2-(4-(4-(2-methyl-4-(trifluoromethyl)-1H-imidazol-1-yl)-3′-(methylsulfonyl)-[1,1′-biphenyl]-3-yl)-5-(4-(trifluoromethoxy)phenyl)oxazol-2-yl)ethanol]	514		66
Cc1nc(C(F)(F)F)cn1-c1ccc(-c2cccc(C(C)(C)C(=O)O)c2)cc1-n1nncc1-c1ccc(OC(F)(F)F)cc1 [Example 95, 2-methyl-2-{4′-[2-methyl-4-(trifluoromethyl)-1H-imidazol-1-yl]-3′-(5-{4-[(trifluoromethyl)oxy]phenyl}-1H-1,2,3-triazol-1-yl)biphenyl-3-yl}propanoic acid]	2850		139
